Patent publication US20050112573A1, “Method of detecting toxic substance” (priority 2001, published 2005)

Test system: yeast genes (level of expressed mRNA)
Assay: DNA chip analysis of expressed mRNA of yeast genes after 2 h culture with a toxic chemical substance
Assay type: cell-based, Saccharomyces cerevisiae S288C
Procedure: Yeast (Saccharomyces cerevtisiae S288C (α SUC2mal mel gap2 CUP1)) were cultured at 25° C. on YPD medium (yeast extract 1%, polypepton 2%, glucose 2%). One of toxic chemical substances was added to the cell at logarithmic growth phase, and the cell was further cultured for two hours. Cell was cultured without any chemical substance in the same condition, and was used as control. Concentrations of the chemical substances were defined to inhibit the growth of the yeast but not lead to death.
After the completion of cultivation, the culture was centrifuged to collect the cells. To the cells, sodium acetate buffer (50 mM sodium acetate, 10 mM EDTA, 1% SDS) was added, and the mixture was shaken at 65° C. for five minutes, followed by returning to room temperature, and obtaining the supernatant, which procedure was repeated two times. To the supernatant, ½ amount of a solution of phenol/chloroform was added, and the mixture was centrifuged to give a supernatant, which was added with an equal amount of chloroform, and the mixture was centrifuged to give a supernatant. To the supernatant, an equal amount of isopropanol containing 0.3 M sodium acetate was added, and the mixture was allowed to stand at room temperature for 30 minutes, after which the mixture was centrifuged to give a sediment of the whole RNAs. Seventy % ethanol was added to the sediment, and the mixture was again centrifuged to give a sediment, which was then dried and dissolved in water. mRNA was isolated from the whole RNAs as followings. In view of the fact that a poly A chain is attached to the 3′ terminus of mRNA, a polynucleotide having a poly T structure which was immobilized on the surface of latex beads was used to trap the mRNA, and then the mRNA was washed and eluted with spine column (Oligotex-dT30<Super>mRNA Purification Kit, Takara). Reverse transcription of the mRNA was conducted with a reverse transcriptase (Super Script II Reverse Transcriptase; catalogue No. 18064-014, GibcoBRL) using fluorescence-labeled nucleotides to give cDNAs that were introduced with Cy3-dUTP or Cy5-dUTP during the reverse transcription.
The labeled cDNAs were dissolved in TE buffer (10 mM Tris-HCl/1 mM EDTA, pH8.0), and the solution was dropped on the DNA chip containing the whole genes of yeast (DNA Chip Research Inc. Japan) so that the cDNAs were hybridized on the DNA chip at 65° C. for over 12 hours. The fluoresces intensity of the DNA chip was read with a scanner, and the ratio relative to the fluorescence intensity resulting from the absence of chemical substance was estimated as the following, which is shown in Tables 1 to 9: [formula]
In the Tables, “Intensity” indicated in the rightmost column is a value of the level of expressed mRNA of each gene in control cells as divided by the average level of the expressions of the whole genes.

manganese ethylenebis(dithiocarbamate) [(8)]
The level of expressed mRNA in the presence of chemical substance/ (yeast gene YNL074C, ratio to control without chemical substance, 2 h culture): 0.6 | The level of expressed mRNA in the presence of chemical substance/ (yeast gene YNL092W, ratio to control without chemical substance, 2 h culture): 0.9 | The level of expressed mRNA in the presence of chemical substance/The level of expressed mRNA in the absence of chemical substance (yeast gene YNL093W): 0.8 | The level of expressed mRNA in the presence of chemical substance/ (yeast gene YNL115C, ratio to control without chemical substance, 2 h culture): 0.8 | The level of expressed mRNA in the presence of chemical substance/ (yeast gene YNL156C, ratio to control without chemical substance, 2 h culture): 1.2 | The level of expressed mRNA in the presence of chemical substance/ (yeast gene YNL234W, ratio to control without chemical substance, 2 h culture): 1.3 | The level of expressed mRNA in the presence of chemical substance/ (yeast gene YNL281W, ratio to control without chemical): 1.2 | The level of expressed mRNA in the presence of chemical substance/ (yeast gene YNL305C, ratio to control without chemical): 0.7 | The level of expressed mRNA in the presence of chemical substance/The level of expressed mRNA in the absence of chemical substance (yeast gene YNL333W): 2.1 | The level of expressed mRNA in the presence of chemical substance/The level of expressed mRNA in the absence of chemical substance (yeast gene YNR010W): 1.1 | The level of expressed mRNA in the presence of chemical substance/ (yeast gene YNR068C, ratio to control without chemical): 1.1 | The level of expressed mRNA in the presence of chemical substance/The level of expressed mRNA in the absence of chemical substance (yeast gene YNR069C): 1.4 | The level of expressed mRNA in the presence of chemical substance/in the absence of chemical substance (yeast gene YNR072W): 0.9 | The level of expressed mRNA in the presence of chemical substance/The level of expressed mRNA in the absence of chemical substance (yeast gene YOL013C): 1.0 | The level of expressed mRNA in the presence of chemical substance/ (yeast gene YOL032W, ratio to control without chemical): 1.5 | The level of expressed mRNA in the presence of chemical substance/ (yeast gene YOL036W, ratio to control without chemical): 0.8 | The level of expressed mRNA in the presence of chemical substance/ (yeast gene YOL047C, ratio to control without chemical): 1.1 | The level of expressed mRNA in the presence of chemical substance/ (yeast gene YOL071W, ratio to control without chemical): 1.6 | The level of expressed mRNA in the presence of chemical substance/ (yeast gene YOL082W, ratio to control without chemical): 1.1 | The level of expressed mRNA in the presence of chemical substance/ (yeast gene YOL083W, ratio to control without chemical): 1.3 | The level of expressed mRNA in the presence of chemical substance/in the absence of chemical substance (yeast gene YOL096C): 1.0 | The level of expressed mRNA in the presence of chemical substance/ (yeast gene YOL117W, ratio to control without chemical): 1.1 | The level of expressed mRNA in the presence of chemical substance/ (yeast gene YOL131W, ratio to control without chemical): 1.1 | The level of expressed mRNA in the presence of chemical substance/ (yeast gene YOL150C, ratio to control without chemical substance, 2 h culture): 3.7 | The level of expressed mRNA in the presence of chemical substance/ (yeast gene YOL162W, ratio to control without chemical): 1.6 | The level of expressed mRNA in the presence of chemical substance/The level of expressed mRNA in the absence of chemical substance (yeast gene YOL164W): 1.0 | The level of expressed mRNA in the presence of chemical substance/ (yeast gene YOR019W, ratio to control without chemical): 1.1 | The level of expressed mRNA in the presence of chemical substance/The level of expressed mRNA in the absence of chemical substance (yeast gene YOR036W): 1.4 | The level of expressed mRNA in the presence of chemical substance/The level of expressed mRNA in the absence of chemical substance (yeast gene YOR117W): 1.0 | The level of expressed mRNA in the presence of chemical substance/The level of expressed mRNA in the absence of chemical substance (yeast gene YOR124C): 1.3 | The level of expressed mRNA in the presence of chemical substance/The level of expressed mRNA in the absence of chemical substance (yeast gene YOR132W): 1.2 | The level of expressed mRNA in the presence of chemical substance/The level of expressed mRNA in the absence of chemical substance (yeast gene YOR157C): 1.2 | The level of expressed mRNA in the presence of chemical substance/in the absence of chemical substance (yeast gene YOR180C): 0.9 | The level of expressed mRNA in the presence of chemical substance/The level of expressed mRNA in the absence of chemical substance (yeast gene YOR181W): 0.7 | The level of expressed mRNA in the presence of chemical substance/The level of expressed mRNA in the absence of chemical substance (yeast gene YOR185C): 1.4 | The level of expressed mRNA in the presence of chemical substance/ (yeast gene YOR197W, ratio to control without chemical): 0.9 | The level of expressed mRNA in the presence of chemical substance/The level of expressed mRNA in the absence of chemical substance (yeast gene YOR198C): 1.3 | The level of expressed mRNA in the presence of chemical substance/The level of expressed mRNA in the absence of chemical substance (yeast gene YOR259C): 1.1 | The level of expressed mRNA in the presence of chemical substance/The level of expressed mRNA in the absence of chemical substance (yeast gene YOR261C): 2.6 | The level of expressed mRNA in the presence of chemical substance/The level of expressed mRNA in the absence of chemical substance (yeast gene YOR288C): 1.9 | The level of expressed mRNA in the presence of chemical substance/The level of expressed mRNA in the absence of chemical substance (yeast gene YOR355W): 0.8 | The level of expressed mRNA in the presence of chemical substance/in the absence of chemical substance (yeast gene YOR363C): 1.1 | The level of expressed mRNA in the presence of chemical substance/The level of expressed mRNA in the absence of chemical substance (yeast gene YOR383C): 1.0 | The level of expressed mRNA in the presence of chemical substance/ (yeast gene YPL087W, ratio to control without chemical): 1.0 | The level of expressed mRNA in the presence of chemical substance/The level of expressed mRNA in the absence of chemical substance (yeast gene YPL089C): 0.8 | The level of expressed mRNA in the presence of chemical substance/The level of expressed mRNA in the absence of chemical substance (yeast gene YPL109C): 1.1 | The level of expressed mRNA in the presence of chemical substance/The level of expressed mRNA in the absence of chemical substance (yeast gene YPL149W): 1.1 | The level of expressed mRNA in the presence of chemical substance/The level of expressed mRNA in the absence of chemical substance (yeast gene YPL154C): 0.8 | The level of expressed mRNA in the presence of chemical substance/ (yeast gene YPL196W, ratio to control without chemical): 1.2 | The level of expressed mRNA in the presence of chemical substance/ (yeast gene YPL206C, ratio to control without chemical): 1.0 | The level of expressed mRNA in the presence of chemical substance/ (yeast gene YPL222W, ratio to control without chemical): 0.7 | The level of expressed mRNA in the presence of chemical substance/ (yeast gene YPR023C, ratio to control without chemical): 0.9 | The level of expressed mRNA in the presence of chemical substance/The level of expressed mRNA in the absence of chemical substance (yeast gene YPR103W): 1.0 | The level of expressed mRNA in the presence of chemical substance/The level of expressed mRNA in the absence of chemical substance (yeast gene YPR108W): 1.6 | The level of expressed mRNA in the presence of chemical substance/ (yeast gene YPR151C, ratio to control without chemical): 1.4 | The level of expressed mRNA in the presence of chemical substance/in the absence of chemical substance (yeast gene YPR184W): 0.7
